Test results as given in patent EP3186387B1, “METHOD OF DETERMINING THE ACTIVITY OF ENZYMES CONVERTING CYTOSINE DERIVATIVES TO URACIL DERIVATIVES IN CELLS, TISSUES AND ORGANISMS” (Univerzita Palackého v Olomouci, priority 2014, dated 2016).

Tested on: HeLa cells
Test: Determination of the deamination activity in adherent HeLa cells: signal of EdU/EdC in DNA, detected by anti-bromodeoxyuridine antibody or click reaction
Format: cell-based, Human
Conditions: for ratios of EC50 in EdU and EdC (KEdU½/KEdC½): two hours of incubation, without FdU
Text: • Figure 1 The metabolism of EdC and EdCMP from the perspective of the deamination activity of some known deaminases in human cells. CDA - 2'-deoxycytidine/cytidine deaminase; dCK - 2'-deoxycytidine kinase; dCMPDA - 2'-deoxycytidine-5'-phosphate deaminase; cdN and mdN - cytosolic and mitochondrial pyrimidine specific 5'-deoxynucleotidase • Figure 2: Schematic depiction of determination of the activity of the enzymes transforming cytosine derivatives into uracil derivatives. • Figure 3: Determination of the deamination activity in HeLa cells using specific antibodies or using a click reaction (Example 1). The figure depicts the dependence of the average intensity of the signals on the used concentrations of EdU or EdC after two hours of incubation with various concentrations of EdU or EdC without the addition of FdU. Two methods were used for the detection of both modified nucleosides: A) detection with a click reaction with an azido dye (Alexa Fluor 488- azide); B) detection using primary anti-bromodeoxyuridine antibody and secondary antibody conjugated with Alexa Fluor 488. The measured intensities of the signals were processed in the Sigma Plot software, in which the curve was constructed and the half of maximal effective concentration (EC50) was determined. It is clear from the course of the graphs that EdC is not likely to be incorporated in the DNA. This was confirmed also by the mutual ratios between the measured values of the intensities obtained by the antibodies and by the click reaction. These ratios were 1.099 for EdU and 1.060 for EdC. […] For the determination, it is also possible to use other measured concentrations, because there was no saturation of the signal even at higher concentrations. • Figure 4 Time curve (Example 1). […] The incorporated nucleosides were detected using a click reaction with azidofluorochrome. • Figure 5: The comparison of the incorporation of FU and FC into HeLa cells when using various concentrations (Example 1). […] EdU was detected with antibodies. […]

## C#Cc1cn([C@H]2C[C@H](O)[C@@H](CO)O2)c(=O)nc1N [EdC, 5-ethynyl-2'-deoxycytidine]
EdC around 5 µmol.l^-1, not in the saturation area
  concentration of EdU providing approximately such a signal as 5 µmol.l^-1 EdC: ~0.55 µmol/L
Detection performed by the antibodies
  ratios of EC50 in EdU and EdC (KEdU½/KEdC½): 0.23
Detection performed by the click reaction
  ratios of EC50 in EdU and EdC (KEdU½/KEdC½): 0.32
